The results in this text go back to a melting point compilation (Tetko et al.; mined from patent text by program, amines drawn as free bases though some values may be those of a salt).

The structures appear in SMILES notation. Where only a bound is given, the exact number is not on record here.

Take `CC(=O)NCc1ccc(CN2CCN(c3cccnc3)CC2)cc1`: the melting point lay in the range of 139 to 140 °C.

The compound `CCOC(=O)c1cn(Cc2ccccc2)nc1OCc1ccc(OCc2nc(-c3ccco3)oc2C)c(Cl)c1` registered a melting point of 153 to 154 °C. `COC(=O)CNC(=O)CC(=O)CBr` displayed a melting point of 76 to 77 °C.

Turning to `COC(=O)c1c(F)c(F)c(F)c(F)c1C(=O)OC`, the melting point fell in the range of 68 to 70 °C.

As for `O=C1C=c2c(c3c4ccccc4[nH]c3c3[nH]c4ccccc4c23)=N1`, the melting point was more than 320 °C. To `Cc1cc2c(=O)[nH][nH]c(=O)c2n1CC(C)C` belongs 278 to 282 °C.

As to `CCC(C)COc1ccc(-c2ccc(O)cc2)cc1` (stereo unspecified), the melting point was 80.5 °C.

`O=C(O)[C@H]1CN(c2ccc(C3=CCSCC3)c(F)c2)C(=O)O1` displayed a melting point of 106 to 110 °C.

For the compound `COC(=O)c1cc(C2=CCCO2)c(C(F)(F)F)cc1NC(C)=O`, the melting point lay in the range of 120 to 125 °C.

`COCCc1nc2c(N)nc3ccccc3c2n1CCCCNC(=O)c1nccc2ccccc12` gave a melting point of 61 to 63 °C.

`Oc1ccc(C(F)(F)F)c2ccccc12` showed a melting point of 132 to 133 °C. Regarding `O=C(NCc1ccc(Cl)cc1)c1cnc2ccc(Br)cc2c1O`, the melting point fell in the range of 282 to 283 °C. As to `COc1ccc(C=C2NC(=O)N(C)C2=O)cc1`, the melting point lay within 221 to 222 °C. On to `CCCC(=O)c1c[nH]c(=O)[nH]1`, for which the melting point was 268 to 270 °C. With `COC(=O)C1=C(C)NC(C)=C(C(=O)OCCCCCCCCN)C1c1cccc([N+](=O)[O-])c1` (stereo unspecified), the melting point was in the range of 129 to 131 °C.

Turning to `CCOC(=O)C(=O)Nc1nc(C(C)C)cs1`, the melting point lay within 54 to 57 °C. The figure for `CCCCNc1c(C(=O)OCC)c(C)nc2c1ncn2C` is 62 to 63 °C. To `CCCCCCCCCCCCCCCCCCNC(=O)OC[C@H]1CC[C@@H](CO)O1` (relative stereo) belongs 79 to 80 °C; to `COC(=O)c1cc(Cl)c(I)cc1OC`, 72 to 73 °C; to `Cn1cnc(COc2nn3c(-c4ccccc4)nnc3cc2-c2ccccc2)n1`, 229 to 233 °C.

With `CS(=O)(=O)c1cccc(NC(=O)c2cnn3c(C(F)F)cc(-c4ccc(C(F)(F)F)c(F)c4)nc23)c1`, the melting point was found to be 238 °C.

Compound `CCc1nc2cc(C#N)c(Cl)cc2n1-c1ccc(CCNC(=O)NS(=O)(=O)c2ccc(C)cc2)cc1` displayed a melting point of 219 to 224 °C. To `O=C1C2CCCCC2=Nc2ccccc2N1Cc1ccccc1` (stereo unspecified) belongs 123 to 125 °C. To `CCOC(=O)C1=C(O)[C@H](CC2CCCCC2)NC1=O` belongs 176 to 180 °C; to `COC(=O)c1cncn1C1c2ccccc2C(OC)(OC)C1(C)C` (stereo unspecified), 140 to 141 °C. To `CC(C1CC1)N(CCCc1c[nH]c2ccc(F)cc12)C1COc2c(F)ccc(C(N)=O)c2C1` (stereo unspecified) belongs 124 °C. The compound `O=Cc1cc(O)c(OCc2ccccc2)cc1O` showed a melting point of 147 to 148 °C.

Take `Cc1ccc2c(OS(=O)(=O)C(F)(F)F)cc(=O)oc2c1`: the melting point lay within 95 to 96 °C. The figure for `CC(C)C(=O)Nc1cn(-c2cncc(F)c2)nc1CCl` is 172 to 177 °C; for `O=C1C(c2ccccc2)=C(c2ccccc2)C(=O)N1CCc1cccc(F)c1` it is 129 to 130 °C.

`CN(C)C=Nc1nc(Cl)c(N=CN(C)C)c(Cl)n1` displayed a melting point of 116 to 119 °C. The figure for `C#CC1(O)CCC2(C)C(CCC3C2CCC2(C)C(C(=O)CSCCO)CCC32)C1` (stereo unspecified) is 122 to 126 °C. The figure for `COc1ccc(NC(=O)c2ccc(OC)c3oc4ccc(NC(C)=O)cc4c23)cc1` is 285 °C. To `CCOC(=O)N1CCC(C(=O)Cl)CC1` belongs 96 to 98 °C; to `Cc1ccccc1-c1nsc(S(=O)(=O)N=CN2CCOCC2)n1`, 151 to 153 °C. `C#CCOc1cc(-n2nc3ccc(Cl)cn3c2=O)c(F)cc1C#N` registered a melting point of 209 to 211 °C.

Compound `CCOc1ccc2c(c1)C(C)=CC(C)(C)N2C(=O)Cl` returned a melting point of 75.5 to 76.5 °C. Regarding `CC1(C)C(=O)Nc2cc(C(=O)Nc3cccc(N)c3)ccc21`, the melting point lay in the range of 244 to 245 °C.

Turning to `CNC(=S)C1c2cc([N+](=O)[O-])ccc2OC(C)(C)C1O` (stereo unspecified), the melting point fell in the range of 203 to 207 °C. With `CN(c1cccc2cc(C3=NCC(CC(=O)N4CCS(=O)CC4)S3)[nH]c12)S(=O)(=O)c1cccs1` (stereo unspecified), the melting point is 149 °C. The figure for `COC(=O)c1c(-c2ccccc2)nn2ccc3c(c12)C(CC#N)CC3` (stereo unspecified) is 214 to 215 °C; for `Cc1ccnc(NCCCCC(=O)O)c1` it is 138 to 140 °C. To `Nc1ccc(NC(=O)CC(=O)c2ccccc2)cc1[N+](=O)[O-]` belongs 182 to 183 °C; to `Nc1ncccc1-c1nc2cc(F)cnc2n1-c1ccc(CC(=O)Nc2ccccc2)cc1`, 240 to 242 °C; to `CC(CSC(=O)c1ccccc1)C(=O)N1c2ccccc2CC1C(=O)O` (stereo unspecified), 116 to 117 °C. To `Clc1nc2cc3ccccc3cc2nc1Cl` belongs 239 to 242 °C. `CC(C)(C)N(CC(O)CONC(=O)NC1CCCCC1)C(=O)NC1CCCCC1` (stereo unspecified) returned a melting point of 151 to 152 °C. To `CSC(=C[N+](=O)[O-])NCCSCc1csc(NC(=N)N)n1` belongs 151 to 156 °C; to `CC1CN(c2ccc([N+](=O)[O-])nc2)C1`, 141 to 143 °C; to `Cc1ccccc1-c1cnc2c(C(F)(F)F)cccc2c1-c1cccc(NC(=O)Nc2ccccc2Cl)c1`, 224 to 226 °C. The figure for `CCCCC(CC)n1c(CC)nc2c1C(=O)N(C)CN2c1ccc(Cl)cc1Cl` (stereo unspecified) is 94 to 95 °C; for `CC(C)n1c(=O)n(C)c(=O)c2c(S(=O)CCCO)n(Cc3cccc4ccccc34)cc21` (stereo unspecified) it is 184 to 185 °C; for `CC(C)(C)c1cc(CC2CCCCC2=O)cc(C(C)(C)C)c1O` (stereo unspecified) it is 79 °C. To `CN(C(=O)NN1CC=CCC1)c1ccccc1` belongs 99 to 99.5 °C; to `Cc1cc(OCCN2CCc3ccc(NS(C)(=O)=O)cc3CC2)ccc1NS(C)(=O)=O`, 173 to 174 °C.

`CC(=O)Nc1ccc(OCC(O)CNC(C)(C)C)c(C2=NNC(=O)CC2)c1` (stereo unspecified) registered a melting point of 102 to 109 °C. To `Cc1nc(-c2cn(-c3cc(-c4ccc(C(F)(F)F)cc4)cc(C(F)(F)F)n3)cn2)sc1S(=O)(=O)NC(C)(C)C` belongs 260 °C. To `COc1ccc2c(c1)OC(=O)N(C1CCCCC1)C2` belongs 76 to 77 °C.

As to `CCC1(CC(=O)O)CCCc2c1n(C)c1ccccc21` (stereo unspecified), the melting point lay in the range of 140 to 143 °C. In the case of `Cc1c(SCCCN2CCN(Cc3ccncc3)CC2)ccnc1CNc1ncncc1Cl`, the melting point fell in the range of 149 to 151 °C. `COC(=O)C=CC=CCS(=O)(=O)c1ccccc1` came in with a melting point of 105 °C. The figure for `COc1ccc(Nc2ncnc3cc(Cl)ccc23)cc1` is 177 to 179 °C; for `C[C@@H]1OCCN(c2cc(N3CCOCC3)nc(-n3c(CO)nc4ccccc43)n2)[C@@H]1C` (relative stereo) it is 125 to 128 °C; for `Cn1cc(-c2cc3cccnc3[nH]2)c2ccc(C(=O)NCCO)cc21` it is 264 to 267 °C. The figure for `CCCCCCCCCCCCCc1cc[nH]c1` is 32.5 to 33.5 °C; for `CCc1c(C(=O)NN2CCCCC2)nn(-c2ccc(Cl)cc2Cl)c1-c1ccc(Br)cc1` it is 112 to 115 °C; for `O=c1c(N2CCN(c3ccncc3)CC2)cn(Cc2ccccc2)c2cc(O)ccc12` it is 141 to 146 °C.

Consider `COc1ccc(-c2[nH]nc3c2C(=O)c2c(NC(=O)CNCCO)cccc2-3)cc1`, for which the melting point came to 243 °C. The figure for `CC(N)=NS(=O)(=O)C=Cc1c(Cl)cccc1Cl` is 154 to 158 °C; for `CCOC(=O)c1cc(CC)sc1Nc1ccccc1N` it is 50 to 52 °C. Compound `COc1ccc(C(=O)CC(Cc2ccccc2)C(=O)O)cc1` (single isomer, unassigned; (+)) gave a melting point of 93 °C. The figure for `CCCOc1ccccc1-c1nc2nc(NCCCSC)ncc2c(=O)[nH]1` is 173 to 174 °C; for `O=S1(=O)NCCCN1CCc1ccncc1` it is 124 to 125 °C; for `Cc1cc(C#N)ccc1-c1ccc(O)cc1` it is 136 to 138 °C.

As for `Clc1ccc(CN2CC=C(/C=C/c3ccccc3)CC2)cc1`, the melting point was in the range of 141 to 142 °C. Compound `CCOC(=O)c1c(Nc2c(C)cccc2C)n[nH]c1C` showed a melting point of 131 to 137 °C. `CCOC(=O)COc1ccc(CBr)cc1` returned a melting point of 44 to 45 °C.

As to `c1ccc(Cn2ccc3nnc4ccccc4c32)cc1`, the melting point was in the range of 190 to 192 °C. On to `CC(C)(O)c1onc(-c2ccccc2Cl)c1C(=O)c1nnn(Cc2cc(C(F)(F)F)cc(C(F)(F)F)c2)c1-c1cccnc1`, for which the melting point stood at 105 °C. To `COc1ccc(-c2nc(-c3ccccc3)nc(-c3ccccc3)n2)c(O)c1` belongs 211 to 212 °C; to `CCOC(=O)c1c(C(F)(F)F)nc(C(F)F)c(C(=O)OC)c1N(C)C`, 80 to 81 °C.

As to `CCCCCCCCCCCCSCCOc1ccc(CCC(=O)OC)cc1`, the melting point stood at 48 °C. To `CCCCc1oc2ccc(N)cc2c1C(=O)c1ccc(OCCCO)cc1` belongs 86 to 90 °C. The compound `O=C(O)Cc1cccc(-c2cccc(COC3OC(CO)C(O)C(O)C3O)c2)c1` (stereo unspecified) displayed a melting point of 74 to 75 °C.

As for `CCCCCN(CCC12CC3CC(CC(C3)C1)C2)C(=O)NCc1ccccn1`, the melting point was 87.5 to 92 °C. The figure for `CC(C)(C)COc1c(-c2ccc(S(N)(=O)=O)cc2)cnn(-c2ccc(F)c(F)c2)c1=O` is 173 to 175 °C; for `CCCCCCC(=O)NCC(=O)O` it is 98 to 100 °C; for `COc1ccc(OC)c(COc2ccc3nc[nH]c(=O)c3c2)c1` it is 155 to 158 °C.

For the compound `Cc1cc2c(c(C(=O)c3ccccc3)c1)NCC2`, the melting point was 84 °C. To `CC(C)(C)c1ccc(C2C=C(c3ccccc3)NN2c2ccccc2)cc1` (stereo unspecified) belongs 150 to 153 °C.

On to `CCOC(=O)C(=O)c1cn(Cc2ccc(C(C)(C)C)cc2)c2cc(-c3ccc(OC(F)(F)F)cc3)ccc12`, for which the melting point lay in the range of 146 to 147 °C.

The melting point is the temperature, or range, at which the solid turns liquid.
